# According to patent US12376538B2, “Rice cultivar designated ‘CLL17’” (Board of Supervisors of Louisiana State University and …, priority 2020, dated 2025):
# System: ‘CLL17’ rice plant
# Experiment: Herbicide tolerance and susceptibility of 'CLL17' rice plants
# Assay type: in vivo
# Conditions: at levels of the herbicide that would normally inhibit the growth of a rice plant
# Excerpt: The variety is resistant to imidazolinone herbicides. The herbicide resistance (or herbicide tolerance) profile is essentially the same as that of ‘CL161’ through common ancestry. The herbicide tolerance allows ‘CLL17,’ its hybrids, and derived varieties to be used with certain imidazolinone or sulfonylurea herbicides, including among others the imidazolinone herbicides imazethapyr and imazamox, for the selective control of weeds including red rice. See generally U.S. Pat. No. 6,943,280.
# Among others, the herbicide tolerance and susceptibility characteristics of ‘CLL17’ include or are expected to include the following.
row,Compound,herbicide tolerance / susceptibility of ‘CLL17’ (resistant or sensitive)
1,CCOC(=O)c1ccccc1S(=O)(=O)NC(=O)Nc1nc(Cl)cc(OC)n1 [chlorimuron ethyl],sensitive
2,COCc1cnc(C2=NC(C)(C(C)C)C(=O)N2)c(C(=O)O)c1 (stereo not drawn) [imazamox],resistant
3,Cc1cnc(C2=NC(=O)C(C)(C(C)C)N2)c(C(=O)O)c1 (stereo not drawn) [imazapic],resistant
4,CC(C)C1(C)N=C(c2ncccc2C(=O)O)NC1=O (stereo not drawn) [imazapyr],resistant
5,CC(C)C1(C)N=C(c2nc3ccccc3cc2C(=O)O)NC1=O (stereo not drawn) [imazaquin],resistant
6,CCc1cnc(C2=NC(C)(C(C)C)C(=O)N2)c(C(=O)O)c1 (stereo not drawn) [imazethapyr],resistant
7,COC(=O)c1ccccc1S(=O)(=O)NC(=O)Nc1nc(C)nc(OC)n1 [metsulfuron methyl],resistant
8,COc1cc(OC)nc(NC(=O)NS(=O)(=O)c2ncccc2C(=O)N(C)C)n1 [nicosulfuron],resistant
9,CCS(=O)(=O)c1cccnc1S(=O)(=O)NC(=O)Nc1nc(OC)cc(OC)n1 [rimsulfuron],sensitive
10,COC(=O)c1ccccc1S(=O)(=O)NC(=O)Nc1nc(C)cc(C)n1 [sulfometuron methyl],sensitive
11,COC(=O)c1sccc1S(=O)(=O)NC(=O)Nc1nc(C)nc(OC)n1 [thifensulfuron methyl],resistant
12,COC(=O)c1ccccc1S(=O)(=O)NC(=O)N(C)c1nc(C)nc(OC)n1 [tribenuron methyl],resistant
